The assay has as its target T1, KPC-2 (Klebsiella pneumoniae carbapenemase-2) (Klebsiella pneumoniae, UniProt Q9F663).
T1 construct: purified KPC-2 expressed in E. coli BL21(DE3) (pET28a-KPC-2)
In words: nitrocefin hydrolysis inhibition assay with purified KPC-2; supported by CD, FTIR and site-directed mutagenesis. The assay is classed as biochemical.

T1 sequence (Q9F663 25-293 limits assumed): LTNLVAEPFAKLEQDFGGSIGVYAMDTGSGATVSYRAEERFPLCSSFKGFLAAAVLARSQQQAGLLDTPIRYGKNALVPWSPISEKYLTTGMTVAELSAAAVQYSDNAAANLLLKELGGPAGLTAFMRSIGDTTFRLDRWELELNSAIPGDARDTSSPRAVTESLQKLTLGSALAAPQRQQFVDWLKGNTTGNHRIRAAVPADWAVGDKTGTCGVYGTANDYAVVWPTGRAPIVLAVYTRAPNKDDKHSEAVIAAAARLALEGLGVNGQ

A word on the IC50: it is the concentration at which inhibition is half-maximal. Read a low IC50 as greater potency in that assay. In the case of `CCCCCCCCCCCCCc1cccc(O)c1C(=O)O` [GA, Ginkgolic Acid (C13:0)], the IC50 was 14.8 µM.

Values taken from article PMC11371739, “Ginkgolic Acid as a carbapenem synergist against KPC-2 positive Klebsiella pneumoniae” (Frontiers in Microbiology, 2024).
